The text below walks through data of US7151175B2, “Propenecarboxylic acid amidoxime derivatives, a process for the preparation thereof, and pharmaceutical compositions containing the same” (N-Gene Research Laboratories Inc., priority 2000, dated 2006).

Series [1] deals with T1, poly(adenosine diphosphate ribose)polymerase (PARP) (Rattus norvegicus, UniProt P27008).
T1 construct: was isolated from rat liver according to the article of Shah, G. M; from tissue; host or cells: rat liver
The series is described as follows: Determination of PARP inhibition, in vitro, on isolated enzyme. Format: biochemical. To be noted: PARP isolated from rat liver; four parallel measurements; read-out: PARP I0.5 (converted). On the procedure: The poly(adenosine diphosphate ribose)polymerase was isolated from rat liver according to the article of Shah, G. M. [Anal. Biochem., 227, 1–13 (1995)]. The PARP activity was determined in 130 μl of reaction mixture consisting of 100 mM of tris-HCl buffer, pH 8.0, 10 mM of MgCl2, 10% glycerol, 1.5 mM of DTT, 100 μg of (32P) or (3H) NAD+, 10 μg of activated DNA, 10 μg of histone. [Tris-HCl is tris(hydroxymethyl)aminomethane hydrochloride.] After 10 minutes of incubation time, the reaction was stopped with 8% perchloric acid, and the protein was separated through centrifugation (10 minutes, 10.000×g). The precipitate was washed with 8% perchloric acid three times, and the radioactivity bound to the protein was measured with a scintillation counter.

In another series the test system is male SPRD rats. Briefly: Heart ischemic failure and reperfusion arrhythmia (LAD occlusion/reperfusion). Format: in vivo, rat. To be noted: 5 min LAD occlusion, 10 min reperfusion. As to the method: Experiments were carried out in male SPRD rats (acceptable body weight range: 300–350 g). The animals were anesthetized by the administration of pentobarbital [5-ethyl-5-(1-methylbutyl)-2,4,6-(1H,3H,5H)-pyrimidintrione] (60 mg/kg intraperitoneally), and remained breathing spontaneously. The animals were ventilated with a respirator (manufactured by Kutesz, Hungarian Academy of Sciences) by using a trachea cannule inserted after tracheotomy. The standard lead of the ECG II was monitored. The right femoral artery was catheterized and connected to a pressure transducer (BPR-01, Experimetria, Hungary) and a preamplifier. The pulsotachometer (HG-M, Experimetria, Hungary) was started by the pulsating signal of arterial blood pressure. The external jugular vein was cannulated for drug administration. After thoracotomy, a silk (braided, coated 4-0) was placed under the left anterior coronary (LAD) artery. After a few minutes' stabilization period, a 5 min occlusion of LAD artery was applied followed by a 10 min reperfusion period. ECG was recorded in the normal state at the start and in the above periods. From the data of ECG, the span of time of ventricular tachycardia and fibrillation was determined in sec. In addition, the survival ratios in the treated animal groups were recorded.

For the next series, the system named is male NMRI mice. The series is described as follows: Hepatotoxicity induced by acetaminophene (paracetamol). Format: in vivo, mouse. The note with it: dose of 50 mg/kg. On the procedure:
It was examined whether the liver damage induced with paracetamol can be prevented by the novel compounds of the formula I. The symptom of liver damage was characterized by an increase of the GOT and […] enzyme levels induced with paracetamol. The experiments were carried out on male NMRI mice of 30–40 g body weight. The animals were pretreated with the compounds of the formula I, perorally, for 7 days. On day 8, the mice were subjected to starvation for 12 hours, then a 500 mg/kg p.o. dose of paracetamol and a given dose of a compound of the formula I were administered. After 16 hours, the animals were bled to death and the activity of the GOT and GPT enzymes was measured in the serum. The results were analyzed by the non-parametric test of Mann and Whitney. As to the results, the average and the standard deviation are given wherein p<0.05 was considered as significant.

The subject of a further series is C57BI mice. Briefly: Experimental model of Parkinson's disease (MPTP). To be noted: four times 20 mg/kg MPTP intraperitoneally. The format is in vivo, mouse. The text has this:
Parkinson's disease (PD) is a common disabling idiopathic neurodegenerative disorder characterized by tremor, bradykinesia, rigidity and balance difficulties. These motor abnormalities are caused by the depletion of brain dopamine that results from the loss of dopaminerg neurons in the substantia nigra pars compacta. The analysis of the action of 1-methyl-4-phenyl-1,2,3,6-tetrahydropyridine (MPTP) having selective neurotoxicity shed light to the possible patomechanism of the Parkinson's disease. MPTP induces parkinsonian motor signs in both human and animals [Dexter, A. et al., Ann. Neurol., 35, 38–44 (1994)]. MPTP treatment results in a loss of dopaminergic neurons in the substantia nigra pars compacta, as well. Lewy body-like eosinophilic inclusions appear in the damaged neurons and the activity of mitochondrial complex I is also diminished in these cells. These alterations are characteristic for oxidative stress [Shapira, A., Adv. Neurol., 69, 161–165 (1996)]. The biologically active metabolite of MPTP is MPP [1-methyl-4-phenylpyridinium]. MPP inhibits directly complex I in mitochondria leading to increased generation of superoxide anion. […] After centrifugation (14000×g, 10 min, 4° C.), 20 μl of supernatant were injected onto a reverse phase catecholamine column (ESA, Bedford) and dopamine content was evaluated. […]

A further series has as its system conscious rabbits. Briefly: Hyperinsulinaemic euglycaemic clamp studies (insulin sensitivity). The format is in vivo, rabbit. On the procedure:
It was investigated whether treatment with the compounds of the invention effected insulin sensitivity of normal and hypercholesterolaemic conscious rabbits. Adult male white New Zealand rabbits weighing 3–3.5 kg, housed in an animal room (12-hour light/dark periods a day, temperature of 22–25° C., humidity of 50–70%), fed commercial laboratory chow and tap water ad libitum were used throughout. The experimental period commenced after a two-week adaptation period. The rabbits were randomized into two main groups. Half of the animals were continued to feed normal rabbit chow, whereas the second group animals were fed chow enriched with 1.5% cholesterol over a period of eight week. Each main group was divided into four treatment groups: • untreated group, • group treated with a compound of the invention, 10 mg/kg i.v. dose twice a day over 4 days, • group treated with 7-nitroindazole as NOS inhibitor: administration of 5 mg/kg of 7-nitroindazole over 5 min. preceded insulin administration with a 5-min inter-infusion interval, • group treated with both 7-nitroindazole and the compound of the invention as described.
The animals were anaesthetized and polyethylene catheters were inserted into two major branches of the right jugular vein and the left carotid artery. The catheters were exteriorized through the back of the neck and filled with physiological saline containing heparin. […]

Where a name gives a salt, the structure may show the parent alone.

T1 sequence (P27008 whole entry): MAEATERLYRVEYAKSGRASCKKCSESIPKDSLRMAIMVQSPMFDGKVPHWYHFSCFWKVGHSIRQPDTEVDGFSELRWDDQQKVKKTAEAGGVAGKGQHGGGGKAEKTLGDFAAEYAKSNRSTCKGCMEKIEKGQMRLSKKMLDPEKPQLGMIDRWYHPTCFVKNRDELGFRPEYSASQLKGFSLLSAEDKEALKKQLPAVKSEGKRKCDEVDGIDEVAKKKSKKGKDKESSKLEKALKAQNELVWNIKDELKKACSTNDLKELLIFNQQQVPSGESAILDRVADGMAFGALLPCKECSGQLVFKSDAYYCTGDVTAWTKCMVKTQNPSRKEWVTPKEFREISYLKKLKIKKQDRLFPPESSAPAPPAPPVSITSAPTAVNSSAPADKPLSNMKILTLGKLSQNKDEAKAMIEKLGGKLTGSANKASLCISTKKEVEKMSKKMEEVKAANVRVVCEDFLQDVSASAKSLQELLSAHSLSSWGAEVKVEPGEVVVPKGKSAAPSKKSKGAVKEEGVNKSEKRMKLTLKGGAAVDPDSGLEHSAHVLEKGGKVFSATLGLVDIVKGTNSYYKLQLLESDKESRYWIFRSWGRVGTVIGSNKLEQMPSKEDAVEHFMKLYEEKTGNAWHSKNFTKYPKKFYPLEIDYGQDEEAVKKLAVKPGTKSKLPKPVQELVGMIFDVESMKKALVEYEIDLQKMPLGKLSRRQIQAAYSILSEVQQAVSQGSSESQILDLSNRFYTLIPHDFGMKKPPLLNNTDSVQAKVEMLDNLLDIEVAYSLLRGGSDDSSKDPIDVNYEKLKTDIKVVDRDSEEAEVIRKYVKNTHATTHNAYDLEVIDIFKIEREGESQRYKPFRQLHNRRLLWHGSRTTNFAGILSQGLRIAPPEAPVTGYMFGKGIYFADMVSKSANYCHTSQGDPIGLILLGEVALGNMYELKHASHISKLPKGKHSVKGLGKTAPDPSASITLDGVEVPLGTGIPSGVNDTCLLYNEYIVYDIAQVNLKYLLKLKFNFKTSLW

Consider `COc1ccc(C=Cc2noc(=O)n2CC(O)CN2CCCCC2)cc1OC` (centres unmarked) [Example 10, 3-(3,4-Dimethoxystyryl)-4-(3-piperidino-2-hydroxypropyl)-Δ^2-1,2,4-oxadiazolin-5-one hydrochloride], for which, in series [1], the IC50 is 71.9 µM. Still for that read-out and setting: to `CN1CCN(CC(O)CNC(C=Cc2ccccc2)=NO)CC1` (centres unmarked) [Example 14, N-[3-(1-Methyl-4-piperazinyl)-2-hydroxypropyl]cinnamic acid amidoxime trihydrogen maleate] belongs 28.3 µM. The same measure, in the same setting: to `ON=C(C=Cc1ccccc1)NCC(O)CN1CCOCC1` (centres unmarked) [Example 13, N-(3-Morpholino-2-hydroxypropyl)cinnamic acid amidoxime dihydrogen maleate] belongs 65.5 µM. Still for that read-out and setting: to `CC(C)(C)NCC(O)Cn1c(C=Cc2ccccc2)noc1=O` (centres unmarked) [Example 6, 3-Styryl-4-[3-(tert.-butylamino)-2-hydroxypropyl]-Δ^2-1,2,4-oxadiazolin-5-one hydrochloride] belongs 53.6 µM; to `O=c1onc(C=Cc2ccccc2)n1CC(O)CN1CCCC1` (centres unmarked) [Example 3, 3-Styryl-4-(3-pyrrolidino-2-hydroxypropyl)-Δ^2-1,2,4-oxadiazolin-5-one-hydrochloride], 25.4 µM. Regarding `O=c1onc(C=Cc2ccccc2)n1CC(O)CN1CCCCC1` (centres unmarked) [Example 2, 3-Styryl-4-(3-piperidino-2-hydroxipropyl)-Δ^2-1,2,4-oxadiazolin-5-one hydrochloride], the IC50 in series [1] was 27.3 µM. Besides, the “longer survival relative to the control group after reperfusion” value with male SPRD rats came out at 50%. `O=c1onc(C=Cc2ccccc2)n1CC(O)CN1CCOCC1` (centres unmarked) [Example 5, 3-Styryl-4-(3-morpholino-2-hydroxypropyl)-Δ^2-1,2,4-oxadiazolin-5-one hydrochloride]: the IC50 in series [1] was 39.2 µM.

On to `C(=Cc1ccccc1)C1=NOC(CN2CCCCC2)CN1` (centres unmarked) [Example 16, 3-Styryl-6-(piperidinomethyl)-4H-5,6-dihydro-1,2,4-oxadiazine], for which, in series [1], the IC50 was 63.1 µM. The same measure, in the same setting: to `O=c1onc(C=Cc2ccccc2)n1CC(O)CN1CCCCCC1` (centres unmarked) [Example 4, 3-Styryl-4-(3-hexamethyleneimino-2-hydroxypropyl)-Δ^2-1,2,4-oxadiazolin-5-one hydrochloride] belongs 40.8 µM.

In the case of `ON=C(C=Cc1ccccc1)NCC(O)CN1CCCCC1` (centres unmarked) [Example 12, N-(3-Piperidino-2-hydroxypropyl)cinnamic acid amidoxime], the IC50 in series [1] was 59.3 µM. Moreover, in the series on male NMRI mice, the hepatoprotective effect entry is listed as “very favourable hepatoprotective effect”.

Consider `O=c1onc(C=Cc2ccccc2)n1CC(O)CN1CCc2ccccc2C1` (centres unmarked) [Example 8, 3-Styryl-4-[3-(1,2,3,4-tetrahydro-2-isoquinolyl)-2-hydroxypropyl]-Δ^2-1,2,4-oxadiazolin-5-one hydrochloride], for which, in series [1], the IC50 is 31.8 µM. Same read-out and setting: with `Cc1cccc(C)c1NCC(O)Cn1c(C=Cc2ccccc2)noc1=O` (centres unmarked) [Example 9, 3-Styryl-4-[3-(2,6-dimethylanilino)-2-hydroxypropyl]-Δ^2-1,2,4-oxadiazolin-5-one hydrochloride] the figure was 19.2 µM. On to `CN1CC=C(c2ccccc2)CC1` [MPTP, 1-methyl-4-phenyl-1,2,3,6-tetrahydropyridine], for which the “decrease in striatal dopamine content” value in the series with C57BI mice was 80%. For `O=[N+]([O-])c1cccc2cn[nH]c12` [7-nitroindazole], the “effect on the insulin resistance ameliorating effect of the compounds of the invention” value in the series on conscious rabbits (experimental hypercholesterolaemia) is “blocked the insulin resistance ameliorating effect”. In the series on conscious rabbits (normal animals, 5 mg/kg 7-nitroindazole), the “insulin resistance produced by the substance itself” value was “produced insulin resistance”.
